The record followed here is PubChem BioAssay AID1159565 (GlaxoSmithKline (GSK), 2015).

The subject of this assay is T. cruzi-infected H9C2 cardiomyocytes, high-content imaging. Kind of assay: anti-T. cruzi activity in infected cardiomyocytes – imaging, H9C2 host cardiomyocytes, host toxicity (AID 1159565).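 Note: infected cells incubated 72 h after plating.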
The mark [1] stands for this setting: measured here: H9C2 host cell toxicity.
Setting [2] is: measured here: amastigotes per cell.

Active and inactive are the calls of the source. The rule behind the calls is not given here.

As a reminder, the IC50 is the concentration that inhibits the measured activity by half. Consider `CS(=O)(=O)c1ccccc1C(=O)N(Cc1ccccc1)c1ccccc1`, for which the IC50 was > 50 µM (inactive). For the same molecule, the IC50 under setting [1] was above 50 µM. The 50% inhibitory concentration (IC50) under setting [2] was 40 µM.
Take `CC(=O)Nc1ccc(-c2cnc(N)c(-c3nc4ccc(F)cc4[nH]3)c2)cc1`: the IC50 was > 50 µM (inactive). Under setting [1], the half-maximal inhibitory concentration (IC50) was determined as 0.79 µM. Also, under setting [2], the IC50 is above 50 µM.
With `Cc1nn(-c2nc(N)nc(-c3ccccn3)n2)c(N)c1-c1ccccc1`, the IC50 was 5 µM. Under setting [1], the IC50 was 13 µM. The same molecule displayed an IC50 under setting [2] of 1.3 µM.
Consider `Cc1cccc(NS(=O)(=O)c2ccc3c(c2)C(=O)c2cc(S(=O)(=O)Nc4cccc(C)c4C)ccc2-3)c1C`, for which the IC50 was 0.4 µM. The IC50 under setting [1] was found to be 32 µM. Also, the half-maximal inhibitory concentration (IC50) under setting [2] came out at 0.4 µM.
Regarding `Cc1nc(C(=O)Nc2ccc3c(c2)OCO3)nn1-c1ccc(F)cc1`, the IC50 is 1.3 µM. This molecule registered an IC50 under setting [1] above 50 µM. Also, under setting [2], the IC50 amounted to 1 µM.
Take `Cc1ccc2ccc(C(Nc3ccccn3)c3cccnc3)c(O)c2n1` (stereo unspecified): the IC50 is 0.2 µM. The same molecule returned an IC50 under setting [1] of 32 µM. For the same molecule, the IC50 under setting [2] was found to be 0.2 µM.
Consider `O=C(c1cccc(Nc2ncc(-c3ccc4c(c3)OCO4)cn2)c1)N1CCOCC1`, for which the IC50 is 1.3 µM. The same molecule displayed an IC50 under setting [1] of 6.3 µM. This molecule registered a half-inhibitory concentration (IC50) under setting [2] of 0.79 µM.
Take `CN(C)CCN(C)Cc1ccc(Cl)cc1NS(=O)(=O)c1ccc(Cl)c(Cl)c1`: the 50% inhibitory concentration (IC50) was 2 µM. Under setting [1], this molecule displayed an IC50 of 5 µM. Under setting [2], the half-inhibitory concentration (IC50) is 2 µM.
As for `COc1ccc(-c2cnc(NC(=O)c3ccc(F)cc3)n2C)cc1`, the half-inhibitory concentration (IC50) is 5 µM. For the same molecule, the IC50 under setting [1] is above 50 µM. The same molecule gave a concentration for half-maximal inhibition (IC50) under setting [2] of 2 µM.
As for `Nc1nccc(-c2csc(Nc3ccc(Cl)cc3)n2)n1`, the IC50 is > 50 µM (inactive). The 50% inhibitory concentration (IC50) under setting [1] was 2 µM. The molecule further yielded an IC50 under setting [2] above 50 µM.
For `CC(=Cc1ccccc1)CN1CCC(=O)N(Cc2cccnc2)CC1`, the half-inhibitory concentration (IC50) is 0.5 µM. Besides, the half-inhibitory concentration (IC50) under setting [1] was above 50 µM. This molecule returned a half-maximal inhibitory concentration (IC50) under setting [2] of 0.5 µM.
`O=C1CCCCCC1(Cc1cnc[nH]1)c1ccc(Cl)cc1Cl` (stereo unspecified): the IC50 was 0.25 µM. Under setting [1], the 50% inhibitory concentration (IC50) was above 50 µM. In addition, the concentration for half-maximal inhibition (IC50) under setting [2] was determined as 0.32 µM.
The corresponding values for `CN(Cc1ccccc1)Cc1nnnn1C1CCN(Cc2ccc(-n3ccnc3)cc2)CC1` are 0.32 µM, above 50 µM and 0.25 µM.
Take `Cc1cccnc1NC(=O)c1cccc(OCc2c(C)noc2C)c1`: the IC50 was 50 µM. In addition, the IC50 under setting [1] was 2.5 µM. The molecule also showed an IC50 under setting [2] of 40 µM.
In the case of `CN(C)c1ccc(-c2cc3nccnc3c(OC[C@H]3CCCNC3)n2)cn1`, the IC50 is > 50 µM (inactive). For the same molecule, under setting [1], the IC50 is 20 µM. Further, under setting [2], the IC50 worked out at 1.6 µM.
As for `O=C(CN1CCC2(O)CCCCC2C1c1ccc2c(c1)OCO2)Nc1ccc(Cl)cc1Cl` (stereo unspecified), the 50% inhibitory concentration (IC50) was 5 µM. Further, under setting [1], the IC50 is above 50 µM. The molecule further returned a 50% inhibitory concentration (IC50) under setting [2] of 3.2 µM.
The like results for `O=C(Nc1nc(-c2ccccn2)cs1)C1CCc2ccccc2C1` (stereo unspecified) were, in that order, 2.5 µM, 4 µM and 2 µM.
Take `Cc1nnnn1-c1cccc(C(=O)N2CCC[C@@]3(C)c4ncncc4CCC23)c1` (stereo partly specified): the half-inhibitory concentration (IC50) was 0.32 µM. Under setting [1], the IC50 is above 50 µM. Further, the IC50 under setting [2] was found to be 0.32 µM.
As for `Cc1cc2nc(N3CC[C@H]3C(N)=O)nc(Nc3cc(C4CC4)[nH]n3)c2s1`, the IC50 is 7.9 µM. This molecule also displayed a 50% inhibitory concentration (IC50) under setting [1] of 0.5 µM. Also, the IC50 under setting [2] is 4 µM.
`CCc1cc(C(=O)Nc2nccn2-c2ccccc2)cs1`: the half-maximal inhibitory concentration (IC50) is 5 µM. Under setting [1], this molecule gave an IC50 of 20 µM. Besides, the concentration for half-maximal inhibition (IC50) under setting [2] was 3.2 µM.
The corresponding values for `COc1ncc(-c2ccc3ncnc(N4CCOCC4)c3c2)cc1NS(C)(=O)=O` are 6.3 µM, 1.6 µM and 2.5 µM.
As for `COc1ccc(C)cc1-c1csc(NC(=O)C(C)n2ccnc2)n1` (stereo unspecified), the half-inhibitory concentration (IC50) is 0.1 µM. Under setting [1], this molecule came in with a half-maximal inhibitory concentration (IC50) above 50 µM. For the same molecule, the IC50 under setting [2] stood at 0.1 µM.
In the case of `O=C(Nc1n[nH]c(-c2ccccn2)n1)C1CC1c1ccccc1` (stereo unspecified), the half-maximal inhibitory concentration (IC50) is 20 µM. Further, under setting [1], the IC50 is above 50 µM. In addition, the IC50 under setting [2] stood at 16 µM.
Regarding `Cc1[nH]c2ccccc2c(=O)c1Cc1c(C)[nH]c2ccccc2c1=O`, the half-inhibitory concentration (IC50) is 3.2 µM. In addition, the IC50 under setting [1] was above 50 µM. Under setting [2], this molecule gave an IC50 of 1 µM.
As for `Cc1nn(-c2ccccc2)nc1CNC(=O)CN(Cc1ccccn1)Cc1ccccn1`, the IC50 is 10 µM. Further, the IC50 under setting [1] came out at 63 µM. For the same molecule, the IC50 under setting [2] worked out at 3.2 µM.
For `O=C(NCCc1csc(-c2ccc(F)cc2)n1)c1cccs1`, the IC50 is 0.4 µM. The same molecule had an IC50 under setting [1] above 50 µM. Also, the IC50 under setting [2] came out at 0.25 µM.
`CN(Cc1nc2c(C(=O)N3CCN(Cc4ccccc4)CC3)cccc2[nH]1)C1CCCc2cccnc21` (stereo unspecified): the IC50 is 0.5 µM. The molecule further came in with an IC50 under setting [1] of 7.9 µM. This molecule returned an IC50 under setting [2] of 0.5 µM.
